According to US20090264291A1, “COMPOSITIONS COMPRISING ANTI-PROLIFERATIVE AGENTS AND USE THEREOF” (priority 1998, published 2009):
“And” between values parts separate entries of the source, which are not always exact repeats. Identical values can stand only once.

Test system: cells
Assay: Cytotoxicity by agarose diffusion test
Format: cell-based
Experimental: Cytotoxicity was assessed by an agarose diffusion test, in which the test material is applied to the surface of agarose gel, wherein the agarose gel is in contact with cells. Cytotoxic test material causes cell lysis. Live cells incorporate MTT and transform it to formazan as described herein above; cytotoxicity potential is given according to the mean area of non-stained cells, i.e., lysed cells, by the following scale:
Two independent tests were performed in duplicate (total of 4 Petri dishes). Cultured cell were trypsinized and counted. 2×10^6 cells in 4 ml of DMEM medium were seeded in each 50 mm diameter Petri dish. The dishes were incubated for 24 h+1 h at 37° C., 5% CO2, before they were covered with 4% agarose gel, prepared with complete DMEM medium. The test compound (tomato derived extract) was applied on top of a 6 mm disc of filter paper that was placed in the center of the agarose gel surface.
After 23 h-25 h of contact at 37° C. and 5% CO2 the filter paper with the test compound and the agarose gel were gently removed. The cells were rinsed carefully with PBS by a pipette. The liquid was then removed, and 2 ml solution of MTT at 0.5 mg/ml, prepared extemporaneously from a source solution of 5 mg/ml, was added to each dish. The dishes were then incubated for 0.5-1.5 h at 37° C. and 5% CO2. After removal of the excess dye, living cells were colored while lysed cells appeared as an uncolored zone. Each dish was placed on a light surface and the largest and the smallest diameters of the lysis area, estimated visually, were measured by a measuring ruler (mm) on a graph paper, and the mean diameter was calculated.
The value of the diameter of cell lysis taken into account for the determination of cytotoxicity corresponded to the arithmetical mean of the mean diameter defined for the 2 dishes of each test (MD). Pure complete DMEM served as a negative control (no lysis should occur). 3% SDS served as a positive control (cells are lysed due to the presence of SDS).

[1] = dishes 1-4, 23 h-25 h of contact

CCCCCCCCCCCCOS(=O)(=O)[O-].[Na+] [3% SDS, SDS]
MD (mean of the mean diameter for the 2 dishes of each test) (dishes 1 + 2 and 3 + 4): 2.6 cm | Mean (diameter of lysis) (dishes 1-4): 2.6 cm and 2.5 cm | Largest diameter (of the lysis area) [1]: 2.5 cm and 2.6 cm | Smallest diameter (of the lysis area) [1]: 2.4 cm and 2.5 cm
